Results: US20080214658A1, “Composition Comprising Isoorientin for Suppressing Histamine” (UNIGEN, INC., priority 2005, published 2008)

Test system: guinea pig lung mast cells
Assay: Histamine release from passively sensitized (anti-OVA antibody) lung mast cells activated by OVA
Type: cell-based
Details: for Histamine (%) (amount of histamine released as percentage of the total histamine content) / inhibition % of histamine release: 4 × 10^5 mast cells, added 5 min before 1.0 μg/ml OVA challenge; for inhibition % of histamine release: vs OVA alone
Experimental: In each enzyme treatment, the lung tissues were filtered with nylon mesh and metal mesh (100 μm), and centrifuged (called as monodispersed mast cells). Pellets were suspended in 16 ml of buffer (TG buffer) containing Ca^2+, Mg^2+-free, and 0.1% gelatin, loaded to rough Percoll ([…] density), and centrifuged at 1,400 rpm for 25 minutes to give pellets. The cells were suspended again in 8 ml of TG buffer, loaded to discontinuous Percoll ([…] density), and centrifuged again at 1400 rpm for 25 minutes to afford various kinds of cell layers. Among them, mast cells were mainly present in 3rd or 4th layer, and so cells obtained from these layers were washed with TGCM buffer twice. […] Mast cells (4×10^5 cells) were treated with guinea pig IgG1 antibody (anti-OVA 1 ml/10^6 cells), reacted at 37° C. for 45 minutes, and then washed with TGCM buffer to remove anti-OVA antibody which was not bound to mast cells membrane. The cells were suspended in 1 ml of TGCM buffer, and treated with drug (testing substance) at each concentration for 5 minutes. The suspension was […] with 1.0 μg/ml OVA (ovalbumin), reacted for 10 minutes, cooled at ice, and centrifuged. After the centrifuge, histamine in supernatant was measured. […] The amount of histamine contained in each sample was calculated as percentage against the amount of histamine contained in total cells used, as follows. [formula]

O=c1cc(-c2ccc(O)c(O)c2)oc2cc(O)c([C@@H]3O[C@H](CO)[C@@H](O)[C@H](O)[C@H]3O)c(O)c12 [Isoorientin, isoorientin]
IC50 (Cavia porcellus, Mast cell, guinea pig lung mast cells, anti-OVA sensitized, OVA challenge, read-out: IC50 value, inhibition of histamine release in mast cells): 30 µg/mL | Histamine (%) (amount of histamine released as percentage of the total histamine content) (sample 1.25 μg): 27.9 ± 2.62% | inhibition % of histamine release (sample 1.25 μg): 14% | Histamine (%) (amount of histamine released as percentage of the total histamine content) (sample 2.5 μg): 25.6 ± 1.49% | inhibition % of histamine release (sample 2.5 μg): 21.3% | Histamine (%) (amount of histamine released as percentage of the total histamine content) (sample 5 μg): 21.9 ± 2.01% | inhibition % of histamine release (sample 5 μg): 32.6% | Histamine (%) (amount of histamine released as percentage of the total histamine content) (sample 10 μg): 17.2 ± 1.07% | inhibition % of histamine release (sample 10 μg): 47.2%
